The subject of data set [1] is patient-derived NSCLC explants. The experiment in a line: Accumulation of mitoxantrone and daunorubicin in ex vivo explants. It counts as cell-based, human. The following applies: 5 µM talazoparib, 2 µM Ko143, 25 µM MK571. The source says:
NSCLC specimens from lung lobectomies were donated by patients at the Department of Cardiac Surgery, University Hospital Hradec Kralove. All the patients signed the informed consent; its formulation was approved by the University Hospital Ethics Committee (study no. 202002 […]). The NSCLC malignant tissues were excised from lung lobes by the pathologist immediately after the surgery. Then, NSCLC primary explants were generated according to the established protocols. First, the tumor tissues were cut into small pieces by scalpel. Then, the cells were released from the tissue by the 0.1% collagenase in 1 × MEM at 37 °C for 30 min. Subsequently, 1% BSA in MEM (v/v) was added, and cells were filtered through a 40 μm pore-sized cell strainer. The resulting solution was centrifuged at 200 × g for 5 min and the pellet was resuspended in 1% BSA in MEM. The centrifugation (100 × g for 10 min) in Ficoll Paque Plus was used for removing biological impurities such as cell debris, etc. Next, the NSCLC cells were collected and transferred into c-based media. The additional centrifugation (200 × g for 5 min) was applied to remove the traces of Ficoll solution. […] The fluorescence in cells was measured immediately after the collection of their suspensions using flow cytometer Sony SA3800 Spectral Cell Analyzer (Sony Biotechnology, San Jose, CA, USA). […]

The target in the next data set is ABCC1 (Homo sapiens, UniProt P33527). The data set is described as follows: Accumulation assay with daunorubicin in MDCKII-ABCC1 cells. Further details: expressed in transfected cells; host or cells: MDCKII (canine kidney) subline MDCKII-ABCC1, gift of Dr. Alfred Schinkel. The following applies: read-out: ABCC1 inhibition IC50. The format is cell-based. How it is done: (§1) The conduction of accumulation assays followed the slightly changed protocol described previously. In the study, MDCKII-par, MDCKII-ABCB1, MDCKII-ABCC1, MDCKII-ABCG2, and primary explants were seeded into 12-well plates in variant densities, 22.0 × 10^4, 15.0 × 10^4, 25.0 × 10^4, 22.0 × 10^4, and 15.0 × 10^4 cells/well, respectively. After 24 h incubation, two washing steps with 1 × PBS were applied. […] The cells were then incubated under standard conditions for 30 min. Next steps included placing the plates on ice, washing the cells with ice-cold 1 × PBS two-times, and detaching the cells with the ice-cold 10 × trypsin without phenol red. Following trypsinization, cells were resuspended in 1 × PBS containing 2% FBS. Subsequently, cell suspensions were transferred into the test tubes and kept on ice. The fluorescence in cells was measured immediately after the collection of their suspensions using flow cytometer Sony SA3800 Spectral Cell Analyzer (Sony Biotechnology, San Jose, CA, USA). SA3800 software (Sony Biotechnology, San Jose, CA, USA) was used to evaluate the data.
Chain of ABCC1 (P33527 whole entry): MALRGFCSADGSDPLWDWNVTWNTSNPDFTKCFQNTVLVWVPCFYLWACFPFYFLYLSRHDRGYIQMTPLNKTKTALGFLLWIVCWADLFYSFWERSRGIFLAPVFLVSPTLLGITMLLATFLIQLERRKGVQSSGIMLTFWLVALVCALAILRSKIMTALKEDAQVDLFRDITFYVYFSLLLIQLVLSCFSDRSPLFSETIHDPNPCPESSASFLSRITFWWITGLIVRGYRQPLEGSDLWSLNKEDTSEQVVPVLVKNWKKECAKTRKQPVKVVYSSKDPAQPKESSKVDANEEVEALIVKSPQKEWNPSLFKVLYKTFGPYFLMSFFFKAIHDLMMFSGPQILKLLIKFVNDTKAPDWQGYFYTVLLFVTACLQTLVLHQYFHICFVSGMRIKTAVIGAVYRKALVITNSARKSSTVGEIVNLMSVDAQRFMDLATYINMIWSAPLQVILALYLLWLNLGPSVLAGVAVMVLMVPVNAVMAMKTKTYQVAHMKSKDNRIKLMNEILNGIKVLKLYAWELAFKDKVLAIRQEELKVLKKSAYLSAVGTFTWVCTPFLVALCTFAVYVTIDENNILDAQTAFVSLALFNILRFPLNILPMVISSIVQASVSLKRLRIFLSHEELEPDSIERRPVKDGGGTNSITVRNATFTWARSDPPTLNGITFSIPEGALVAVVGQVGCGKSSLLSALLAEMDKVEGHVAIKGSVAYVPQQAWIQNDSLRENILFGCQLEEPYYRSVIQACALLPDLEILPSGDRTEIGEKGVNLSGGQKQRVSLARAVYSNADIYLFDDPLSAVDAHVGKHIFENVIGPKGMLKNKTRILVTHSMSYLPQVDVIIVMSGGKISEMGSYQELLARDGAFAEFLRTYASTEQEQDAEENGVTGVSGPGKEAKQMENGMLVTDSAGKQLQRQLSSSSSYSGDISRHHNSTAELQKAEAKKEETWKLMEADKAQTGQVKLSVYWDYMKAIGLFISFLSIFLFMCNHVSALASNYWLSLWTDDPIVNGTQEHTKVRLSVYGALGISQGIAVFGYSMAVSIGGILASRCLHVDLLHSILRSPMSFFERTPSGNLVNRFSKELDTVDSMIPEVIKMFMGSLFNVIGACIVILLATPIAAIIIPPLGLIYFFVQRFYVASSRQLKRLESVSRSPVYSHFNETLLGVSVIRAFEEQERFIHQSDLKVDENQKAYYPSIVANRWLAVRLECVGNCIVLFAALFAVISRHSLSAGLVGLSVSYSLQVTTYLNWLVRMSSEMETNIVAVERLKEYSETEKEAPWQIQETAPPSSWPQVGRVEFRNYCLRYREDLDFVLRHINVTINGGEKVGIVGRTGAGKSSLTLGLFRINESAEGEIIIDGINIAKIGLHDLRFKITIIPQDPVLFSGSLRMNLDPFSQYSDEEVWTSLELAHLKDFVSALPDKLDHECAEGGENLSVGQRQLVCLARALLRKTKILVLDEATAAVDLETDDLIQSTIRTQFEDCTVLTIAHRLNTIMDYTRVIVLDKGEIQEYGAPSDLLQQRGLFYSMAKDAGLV

Another data set in a line: MTT proliferation assay. It counts as cell-based, Canine. The following applies: dog, MDCKII-ABCB1 cells, comparative MTT, read-out: antiproliferative IC50. How it is done:
The viability MTT assay was employed in several experimental sets, including induction studies, comparative viability assays, and drug combinations. First, 1.3 × 10^4 (MDCKII sublines), 1.2 × 10^4 (A431 sublines), 1.5 × 10^4 (MCF-7), and 1.0 × 10^4 (primary NSCLC explants) cells were seeded in 96-well plates. After seeding, cells were left to refresh in incubator for 24 h. Secondly, the medium was removed, and the serial dilutions of the drugs or drug combinations were added to the cells. Next to these variants, a medium with 40% DMSO and vehicle-containing media were tested as nonviable and unaffected viability controls, respectively. After an additional 48 h of incubation, the cells were washed with 1 × PBS and then treated with 1 mg/mL MTT solution in Opti-MEM. Subsequently, cells were incubated for 60 min under standard conditions. After MTT treatment, generated formazan crystals were solubilized with DMSO for 10 min. Wavelengths of 570 nm (formazan) and 690 nm (background) were used for absorbance measurements using a microplate reader Infinite 200 Pro NanoQuant (Tecan, Männedorf, Switzerland).
Background: Tetrazolium dyes change colour on reduction, which living cells bring about.

For a further data set, the target named is T1, CYP2C9 (Homo sapiens, UniProt P11712).
T1 construct: purchased
T1 sequence (P11712 whole entry): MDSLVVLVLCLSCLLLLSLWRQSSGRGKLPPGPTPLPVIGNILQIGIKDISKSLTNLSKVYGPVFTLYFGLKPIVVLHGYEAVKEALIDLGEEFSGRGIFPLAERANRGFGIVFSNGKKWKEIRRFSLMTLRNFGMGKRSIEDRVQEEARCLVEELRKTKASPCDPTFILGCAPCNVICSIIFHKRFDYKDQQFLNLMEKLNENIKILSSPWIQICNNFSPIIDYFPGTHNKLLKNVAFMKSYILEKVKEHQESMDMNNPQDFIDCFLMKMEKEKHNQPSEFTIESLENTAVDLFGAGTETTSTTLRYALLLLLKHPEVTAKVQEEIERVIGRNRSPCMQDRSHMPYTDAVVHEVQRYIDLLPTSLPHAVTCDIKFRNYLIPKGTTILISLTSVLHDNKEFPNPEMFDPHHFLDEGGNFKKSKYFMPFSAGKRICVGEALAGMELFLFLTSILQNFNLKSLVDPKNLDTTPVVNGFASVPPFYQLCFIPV
The experiment in a line: Incubation assay with recombinant CYP (Vivid kit). The following applies: recombinant enzyme, Vivid substrate. It counts as biochemical. How it is done: (§2) Possible interactions of examined PARPi with human CYP3A4, CYP2C8, CYP2D6, CYP1A2, CYP2B6, CYP2C9, CYP2C19, and CYP3A5 were evaluated using commercial Vivid CYP450 Screening Kits. […] CYP isoenzymes were mixed with the NADPH-regeneration system, and resulting solutions were added to the wells. After 10 min preincubation, the solution of NADP ^+ and a particular Vivid substrate were added to start the CYP-catalyzed reaction. Fluorescence corresponding to the levels of produced metabolites was detected using the microplate reader Infinite […] (Tecan, Männedorf, Switzerland) in a kinetic mode (1-minute intervals). The data from the 15 min interval were selected to analyze the results.

For a further data set, the target named is T2, CYP2C19 (Homo sapiens, UniProt P33261).
T2 construct: purchased
T2 sequence (P33261 whole entry): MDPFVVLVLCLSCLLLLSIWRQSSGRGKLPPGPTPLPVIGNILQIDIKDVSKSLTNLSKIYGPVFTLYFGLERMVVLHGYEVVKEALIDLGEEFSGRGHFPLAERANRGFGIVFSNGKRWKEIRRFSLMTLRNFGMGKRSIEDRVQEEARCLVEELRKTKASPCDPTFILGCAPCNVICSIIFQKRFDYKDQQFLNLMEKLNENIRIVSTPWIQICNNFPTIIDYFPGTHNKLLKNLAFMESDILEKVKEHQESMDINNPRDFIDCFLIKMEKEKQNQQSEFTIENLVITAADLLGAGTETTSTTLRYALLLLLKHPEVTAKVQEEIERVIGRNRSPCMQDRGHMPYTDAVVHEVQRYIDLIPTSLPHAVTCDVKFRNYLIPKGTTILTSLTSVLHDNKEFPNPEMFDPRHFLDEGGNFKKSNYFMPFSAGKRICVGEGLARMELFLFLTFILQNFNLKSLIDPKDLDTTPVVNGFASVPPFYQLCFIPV
The experiment in a line: Incubation assay with recombinant CYP (Vivid kit). The following applies: recombinant enzyme, Vivid substrate. The format is biochemical. Here is the method: as §2

The target in the next data set is T3, CYP2D6 (Homo sapiens, UniProt P10635).
T3 construct: purchased
T3 sequence (P10635 whole entry): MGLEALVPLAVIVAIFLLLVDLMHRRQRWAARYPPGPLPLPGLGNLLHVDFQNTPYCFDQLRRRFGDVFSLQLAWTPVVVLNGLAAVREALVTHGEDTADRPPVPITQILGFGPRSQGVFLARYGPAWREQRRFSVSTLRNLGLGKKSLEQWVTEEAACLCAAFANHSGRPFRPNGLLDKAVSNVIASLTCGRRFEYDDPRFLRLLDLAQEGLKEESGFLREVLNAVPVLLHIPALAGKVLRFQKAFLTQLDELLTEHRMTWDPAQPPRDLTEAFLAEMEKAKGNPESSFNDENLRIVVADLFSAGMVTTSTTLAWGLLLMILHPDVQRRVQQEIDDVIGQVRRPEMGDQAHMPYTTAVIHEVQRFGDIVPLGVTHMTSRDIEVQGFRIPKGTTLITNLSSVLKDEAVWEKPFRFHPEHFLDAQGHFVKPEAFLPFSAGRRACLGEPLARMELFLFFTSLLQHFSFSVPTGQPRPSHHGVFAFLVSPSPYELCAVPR
The data set is described as follows: Incubation assay with recombinant CYP (Vivid kit). The format is biochemical. The following applies: recombinant enzyme, Vivid substrate. Here is the method: as §2

The target of another data set is T4, CYP1A2 (Homo sapiens, UniProt P05177).
T4 construct: purchased
T4 sequence (P05177 whole entry): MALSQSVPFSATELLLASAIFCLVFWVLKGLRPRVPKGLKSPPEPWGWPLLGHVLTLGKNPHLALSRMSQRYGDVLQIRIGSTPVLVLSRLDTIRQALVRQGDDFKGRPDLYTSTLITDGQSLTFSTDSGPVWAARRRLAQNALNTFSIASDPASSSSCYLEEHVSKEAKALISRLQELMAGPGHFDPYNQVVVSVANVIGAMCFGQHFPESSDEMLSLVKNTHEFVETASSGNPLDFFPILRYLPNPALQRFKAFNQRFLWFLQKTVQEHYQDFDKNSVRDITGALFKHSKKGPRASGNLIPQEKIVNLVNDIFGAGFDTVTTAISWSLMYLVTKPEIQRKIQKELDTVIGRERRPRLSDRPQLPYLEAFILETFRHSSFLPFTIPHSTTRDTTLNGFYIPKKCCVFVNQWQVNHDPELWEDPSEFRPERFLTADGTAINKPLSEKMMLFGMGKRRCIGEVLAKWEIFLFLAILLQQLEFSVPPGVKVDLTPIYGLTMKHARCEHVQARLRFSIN
The experiment in a line: Incubation assay with recombinant CYP (Vivid kit). The format is biochemical. The following applies: recombinant enzyme, Vivid substrate. Here is the method:
as §2

Another data set concerns the target T5, ABCG2 (Homo sapiens, UniProt Q9UNQ0).
T5 construct: expressed in transfected cells; host or cells: MDCKII (canine kidney) subline MDCKII-ABCG2, gift of Dr. Alfred Schinkel
The data set is described as follows: Accumulation assay with mitoxantrone in MDCKII-ABCG2 cells. It counts as cell-based. The following applies: normalized to Ko143, read-out: ABCG2 inhibition IC50. Here is the method:
as §1

Some results are limits rather than exact numbers.

In general, IC50 refers to the concentration that gives 50% inhibition.

T5 sequence (Q9UNQ0 whole entry): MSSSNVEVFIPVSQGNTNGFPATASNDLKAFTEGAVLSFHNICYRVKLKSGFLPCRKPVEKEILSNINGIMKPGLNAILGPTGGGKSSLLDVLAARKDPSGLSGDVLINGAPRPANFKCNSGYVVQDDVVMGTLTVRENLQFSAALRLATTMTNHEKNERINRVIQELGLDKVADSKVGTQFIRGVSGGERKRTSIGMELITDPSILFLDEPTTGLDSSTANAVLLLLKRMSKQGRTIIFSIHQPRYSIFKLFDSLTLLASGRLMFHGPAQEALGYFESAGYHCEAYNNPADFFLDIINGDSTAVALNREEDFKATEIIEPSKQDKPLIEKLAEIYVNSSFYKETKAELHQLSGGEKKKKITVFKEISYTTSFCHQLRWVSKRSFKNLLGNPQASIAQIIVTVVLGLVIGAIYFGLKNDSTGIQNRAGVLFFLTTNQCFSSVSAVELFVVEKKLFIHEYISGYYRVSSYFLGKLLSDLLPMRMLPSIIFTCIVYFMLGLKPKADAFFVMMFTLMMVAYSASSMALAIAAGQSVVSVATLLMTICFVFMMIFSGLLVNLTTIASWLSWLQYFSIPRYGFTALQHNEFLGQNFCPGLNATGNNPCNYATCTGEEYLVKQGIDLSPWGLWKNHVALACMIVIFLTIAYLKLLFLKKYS

Consider `Cn1ncnc1[C@H]1c2n[nH]c(=O)c3cc(F)cc(c23)N[C@@H]1c1ccc(F)cc1` [talazoparib, Talazoparib], for which the “effect on cytostatic efflux / accumulation” value is “significantly inhibited cytostatic efflux” in data set [1] (primary cultures with high expression of ABCG2/ABCC1) and “insignificant accumulation changes” in data set [1] (primary cultures with low expression of ABCG2/ABCC1). The IC50 on ABCC1 was 5.62 µM; at CYP2C9 it was greater than 50 µM; on CYP2C19, greater than 50 µM; at CYP2D6, greater than 50 µM; on CYP1A2, greater than 50 µM; at ABCG2, 11.2 µM. Further, the IC50 at 48 h in the data set “MTT proliferation assay” was determined as 67.5 µM.

The record behind these values is paper PMC9697930 (International Journal of Molecular Sciences, 2022).
